Measurements published in ChEMBL document CHEMBL5331091, “Design, synthesis and evaluation of antitumor activity of selective PRMT6 inhibitors” (Eur J Med Chem, 2023).

Experiments:
[1] = molecular target: Protein arginine N-methyltransferase 6 (Homo sapiens, UniProt Q96LA8)
Description: Inhibition of PRMT6 (unknown origin) by AlphaLISA assay in vitro assay

MDA-MB-435 [2] = experiment: Antiproliferative activity against human MDA-MB-435 cells for 3 days by MTT assay; conditions: MDA-MB-435, 72 h
MDA-MB-435 [3] = experiment: Antiproliferative activity against human MDA-MB-435 cells for 5 days by MTT assay; conditions: MDA-MB-435, 120 h
MDA-MB-435 [4] = experiment: Antiproliferative activity against human MDA-MB-435 cells for 7 days by MTT assay; conditions: MDA-MB-435, 168 h
HCC827 [5] = experiment: Antiproliferative activity against human HCC827 cells for 3 days by MTT assay; conditions: HCC827, 72 h
HCC827 [6] = experiment: Antiproliferative activity against human HCC827 cells for 5 days by MTT assay; conditions: HCC827, 120 h
HCC827 [7] = experiment: Antiproliferative activity against human HCC827 cells for 7 days by MTT assay; conditions: HCC827, 168 h
HCC827 [8] = experiment: Induction of apoptosis in human HCC827 cells assessed as early apoptotic cells at 40 uM for 3 days by Annexin V and PI staining based flow cytometric analysis (reference value: 0.44%); format: functional; conditions: time 3 day
HCC827 [9] = experiment: Induction of apoptosis in human HCC827 cells assessed as late apoptotic cells at 40 uM for 3 days by Annexin V and PI staining based flow cytometric analysis (reference value: 0.05%); format: functional; conditions: time 3 day
HCC827 [10] = experiment: Induction of apoptosis in human HCC827 cells assessed as necrotic cells at 40 uM for 3 days by Annexin V and PI staining based flow cytometric analysis (reference value: 0.65%); format: functional; conditions: time 3 day
MDA-MB-435 [11] = experiment: Induction of apoptosis in human MDA-MB-435 cells assessed as early apoptotic cells at 40 uM for 3 days by Annexin V and PI staining based flow cytometric analysis (reference value: 0.38%); format: functional; conditions: time 3 day
MDA-MB-435 [12] = experiment: Induction of apoptosis in human MDA-MB-435 cells assessed as late apoptotic cells at 40 uM for 3 days by Annexin V and PI staining based flow cytometric analysis (reference value: 0.45%); format: functional; conditions: time 3 day
MDA-MB-435 [13] = experiment: Induction of apoptosis in human MDA-MB-435 cells assessed as necrotic cells at 40 uM for 3 days by Annexin V and PI staining based flow cytometric analysis (reference value: 0.61%); format: functional; conditions: time 3 day

Chain of Protein arginine N-methyltransferase 6 (Q96LA8 whole entry): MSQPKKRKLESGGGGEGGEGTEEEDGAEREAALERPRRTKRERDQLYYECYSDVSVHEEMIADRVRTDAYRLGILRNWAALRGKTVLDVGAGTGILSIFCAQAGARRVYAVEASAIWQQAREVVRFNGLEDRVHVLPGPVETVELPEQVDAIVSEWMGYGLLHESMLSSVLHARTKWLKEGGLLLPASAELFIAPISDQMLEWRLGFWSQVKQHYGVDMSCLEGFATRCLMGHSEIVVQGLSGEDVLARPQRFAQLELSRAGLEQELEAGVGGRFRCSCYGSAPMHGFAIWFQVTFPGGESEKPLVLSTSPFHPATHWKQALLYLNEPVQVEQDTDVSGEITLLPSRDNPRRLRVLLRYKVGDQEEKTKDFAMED

Structure (SMILES)	IC50 [1] [µM]	other results
CNCCN(C)Cc1cncc(-c2cccc(NS(=O)(=O)c3ccc(C)cc3)c2)c1	> 5	
CNCCN(C)C(=O)c1cncc(-c2ccc(NS(=O)(=O)C3CC3)cc2)c1	> 5	
CNCCN(C)Cc1cncc(-c2cccc(N(S(=O)(=O)c3ccc(C(F)(F)F)cc3)S(=O)(=O)c3ccc(C(F)(F)F)cc3)c2)c1	> 5	
CN(CCN)Cc1cncc(-c2ccc(CN3CCOCC3)cc2)c1	5.24	
CN(CCN)C(=O)c1cncc(-c2ccc(NS(=O)(=O)C3CC3)cc2)c1	> 5	
CNCCN(C)Cc1cncc(-c2cccc(N(S(=O)(=O)c3ccccc3C)S(=O)(=O)c3ccccc3C)c2)c1	> 5	
CN(CCN)Cc1cncc(-c2ccc(OC(F)(F)F)cc2)c1	6.36	
CNCCN(C)C(=O)c1cncc(-c2cccc(NS(=O)(=O)C3CC3)c2)c1	> 5	
CNCCN(C)Cc1cncc(-c2cccc(NS(=O)(=O)Cc3ccccc3)c2)c1	> 5	
CNCCN(C)Cc1cncc(-c2cccc(NS(=O)(=O)c3ccc([N+](=O)[O-])cc3)c2)c1	> 5	
CNCCNC(=O)c1cncc(-c2ccc(NS(=O)(=O)C3CC3)cc2)c1	> 5	
CNCCN(C)Cc1cncc(-c2cccc(NS(=O)(=O)c3cnn(C)c3)c2)c1	> 5	
CNCCN(C)Cc1cncc(-c2cccc(NS(=O)(=O)c3ccc(C(F)(F)F)cc3)c2)c1	> 5	
CN(CCN)Cc1cncc(-c2cccc(NS(=O)(=O)c3cccs3)c2)c1	> 5	
CN(CCN)Cc1cncc(-c2cccc(NS(=O)(=O)c3ccc([N+](=O)[O-])cc3)c2)c1	> 5	
COc1cc(OC)cc(-c2cncc(CN(C)CCN)c2)c1	> 10	
NCCNC(=O)c1cncc(-c2ccc(NS(=O)(=O)C3CC3)cc2)c1	> 5	
CN(CCN)Cc1cncc(-c2cccc(NS(=O)(=O)c3cnn(C)c3)c2)c1	> 5	

Stronger by IC50 [1], values ahead:

IC50 [1] [µM]	Structure (SMILES)	other results
2.83	CNCCN(C)Cc1cncc(-c2cccc(NS(=O)(=O)N(C)C)c2)c1	
1.54	CNCCN(C)Cc1cncc(-c2cccc(NC(=O)N3CCOCC3)c2)c1	
0.03	CNCCN(C)Cc1ccnc(-c2ccc(NS(=O)(=O)C3CC3)cc2)c1	
1.05	CNCCN(C)Cc1cncc(-c2cccc(NS(=O)(=O)c3ccccc3C)c2)c1	
0.0071	CNCCN(C)Cc1c[nH]nc1-c1ccc(O[C@H]2C[C@H](OCCC3CCOCC3)C2)cc1	IC50 (MDA-MB-435 [2]): 94.7 µM; IC50 (MDA-MB-435 [3]): 90.4 µM; IC50 (MDA-MB-435 [4]): 1.1 µM; IC50 (HCC827 [5]): > 100 µM; IC50 (HCC827 [6]): 8.57 µM; IC50 (HCC827 [7]): 4.15 µM; Activity (HCC827 [8]): 3.11%; Activity (HCC827 [9]): 6.69%; Activity (HCC827 [10]): 3.65%; Activity (MDA-MB-435 [11]): 0.93%; Activity (MDA-MB-435 [12]): 2.82%; Activity (MDA-MB-435 [13]): 0.64%
1.59	CNCCN(C)Cc1cncc(-c2cccc(NC(=O)C(C)C)c2)c1	
1.8	CN(CCN)Cc1cncc(-c2ccc(NS(=O)(=O)C3CC3)cc2)c1	
1.06	CNCCN(C)Cc1cc(-c2ccc(NS(=O)(=O)C3CC3)cc2)ccn1	
0.684	CNCCN(C)Cc1cncc(-c2cccc(NS(=O)(=O)C(F)(F)F)c2)c1	
1.35	CNCCN(C)Cc1cncc(-c2ccc(NC(=O)N3CCOCC3)cc2)c1	
2.18	Nc1ncnc2c1ncn2[C@@H]1O[C@H](CSCC[C@H](N)C(=O)O)[C@@H](O)[C@H]1O [S-ADENOSYLHOMOCYSTEINE]	
3.09	CNCCN(C)Cc1ccncc1-c1ccc(NS(=O)(=O)C2CC2)cc1	
0.262	CNCCN(C)Cc1cncc(-c2cccc(NS(=O)(=O)C3CC3)c2)c1	
4.4	CN(CCN)Cc1cncc(-c2cccc(NS(=O)(=O)N(C)C)c2)c1	
2.57	CNCCN(C)Cc1cncc(-c2cccc(NS(=O)(=O)c3cccs3)c2)c1	
0.213	CNCCN(C)Cc1cncc(-c2ccc(NS(=O)(=O)C(F)(F)F)cc2)c1	
2.97	CN(CCN)Cc1cncc(-c2cccc(NS(=O)(=O)C3CC3)c2)c1	
